# Experimental data published in ChEMBL document CHEMBL1132090, “Synthesis of a phostone glycomimetic of the endothelin converting enzyme inhibitor phosphoramidon” (Bioorg Med Chem Lett, 1999).
# Calls of active or inactive are those of the source. The rule behind the calls is not given here.
# Key:
# [1] = Inhibitory activity against thermolysin induced by big ET-1 which inhibited hypertensive effect; active; format: functional
# [2] = biological target: T1, Endothelin-converting enzyme 1 (Homo sapiens, UniProt P42892); assay: Concentration required to inhibit conversion of […] after deprotection and purification by reverse-phase HPLC; format: functional
# T1 sequence (P42892 whole entry): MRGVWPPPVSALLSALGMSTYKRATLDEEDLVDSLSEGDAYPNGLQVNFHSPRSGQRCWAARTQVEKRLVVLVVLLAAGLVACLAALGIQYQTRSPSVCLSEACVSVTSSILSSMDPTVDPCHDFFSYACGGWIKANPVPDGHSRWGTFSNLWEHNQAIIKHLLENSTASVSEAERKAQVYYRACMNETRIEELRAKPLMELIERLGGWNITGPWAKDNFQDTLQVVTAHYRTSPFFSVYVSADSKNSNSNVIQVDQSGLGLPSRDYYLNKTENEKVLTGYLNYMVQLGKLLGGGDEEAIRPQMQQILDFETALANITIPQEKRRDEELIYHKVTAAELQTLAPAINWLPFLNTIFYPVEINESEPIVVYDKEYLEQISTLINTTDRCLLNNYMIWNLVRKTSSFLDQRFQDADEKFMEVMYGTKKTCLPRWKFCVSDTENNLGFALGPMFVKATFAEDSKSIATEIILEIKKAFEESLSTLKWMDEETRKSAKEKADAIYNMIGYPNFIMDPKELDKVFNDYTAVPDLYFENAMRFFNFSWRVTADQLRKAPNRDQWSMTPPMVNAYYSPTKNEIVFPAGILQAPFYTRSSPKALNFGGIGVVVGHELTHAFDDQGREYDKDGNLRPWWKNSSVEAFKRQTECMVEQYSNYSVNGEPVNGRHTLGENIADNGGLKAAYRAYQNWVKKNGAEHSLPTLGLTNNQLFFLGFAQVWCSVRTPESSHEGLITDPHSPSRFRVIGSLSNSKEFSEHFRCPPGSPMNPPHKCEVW
IC50 [2] [µM],SMILES,Inhibitory activity [1]
–,CC(C)C[C@H](NP(=O)(O)OC1OC(C)C(O)C(O)C1O)C(=O)N[C@@H](Cc1c[nH]c2ccccc12)C(=O)O (some centres not stated),Active
5.05,CC(C)C[C@H](NP1(=O)OC(C)C(O)C(O)C1O)C(=O)N[C@@H](Cc1c[nH]c2ccccc12)C(=O)O (some centres not stated),–
